# Read-outs that look alike come from different tables or passages of the source.
# What was measured:
# Plasmadium berghei = Plasmadium berghei in mice; Rees et al, 1972; cited from earlier work
# [1] = cited from earlier work; for toxicity: at curative doses
# [2] = anti-malarial agents tested as anticonvulsants; Rosenburg and Bottiroli, 1964; cited from earlier work
# [3] = standard maximal electroshock test (anticonvulsant activity); assay type: in vivo; settings: Mus musculus, po, mice
# Procedure: The anticonvulsant activity of the compounds of the present invention was determined by a standard maximal electroshock test, that described by L. A. Woodbury and V. D. Davenport, Arch. Int. Pharmacodyn., 1952, 92, 97.
SMILES,activity against malaria (Plasmadium berghei),"toxicity ([1]; Rees et al, 1972)",ED50 [3] [mg/kg],also measured
Nc1nnc(-c2ccc(Cl)cc2)c(N)n1 [4-chlorophenyl],active against the malaria organism,toxic at curative doses,,"therapeutic ratio ([1]; malaria context, Rees et al, 1972): low therapeutic ratio"
Nc1nnc(-c2ccc(C(F)(F)F)cc2)c(N)n1 [4-trifluoromethylphenyl],still being active against malaria,less toxic than the chlorophenyl compounds,,
CCN(CCO)CCCC(C)Nc1ccnc2cc(Cl)ccc12 (stereo not shown) [hydroxychloroquine],,,,anticonvulsant activity profile [2]: favourable activity profile
"Nc1nnc(-c2ccc(Cl)cc2Cl)c(N)n1 [2,4-dichlorophenyl]",only slight antimalarial activity,,,
"Nc1nnc(-c2cc3ccccc3cc2Cl)c(N)n1 [3,5-diamino-6-(3-chloro-2-naphthyl)-1,2,4-triazine]",,,12,
"Cc1cc(Cl)ccc1-c1nnc(N)nc1N [3,5-diamino-6-(4-chloro-2-methylphenyl)-1,2,4-triazine]",,,14.8,
"Nc1nnc(-c2ccc(Cl)c(Cl)c2)c(N)n1 [3,4-dichlorophenyl]",active against the malaria organism,toxic at curative doses,,"therapeutic ratio ([1]; mouse, in vivo): low therapeutic ratio"
"Nc1nnc(-c2ccc(Cl)c(C(F)(F)F)c2)c(N)n1 [3,5-diamino-6-(4-chloro-3-trifluoromethylphenyl)-1,2,4-triazine]",,,18.5,

# Source: patent publication US4560687A, “Substituted aromatic compounds” (priority 1979, dated 1985)
